Laboratory results: the supplement of paper PMC10307832

Experiments:
Experiment in all cases: relative viability (nuclei count vs DMSO), 5 days (fraction); higher = more cells survive
LC-2-ad = system: LC-2-ad
In short: (§1)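 Lung cancer cell lines, seeded in 1536-well plates, were treated the following day by pin tool with a single drug or with five library-drug doses (not always all listed) in √10 steps on top of a fixed anchor-drug dose. Cells were fixed and nuclei stained in one step after 5 days, and nuclei were counted. Relative viability is the nuclei count for treated wells divided by that for vehicle wells, reported as medians of duplicate plates.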

NCI-H650 = system: NCI-H650
In short: as §1

NCI-H2347 = system: NCI-H2347
In short: as §1

NCI-H2126 = system: NCI-H2126
In short: as §1

COR-L 105 = system: COR-L 105
In short: as §1

H3255 = system: H3255
In short: as §1

NCI-H661 = system: NCI-H661
In short: as §1

HCC-78 = system: HCC-78
In short: as §1

NCI-H322M = system: NCI-H322M
In short: as §1

PC-14 = system: PC-14
In short: as §1

EPLC-272H = system: EPLC-272H
In short: as §1

LCLC-97TM1 = system: LCLC-97TM1
In short: as §1

NCI-H2087 = system: NCI-H2087
In short: as §1

NCI-H647 = system: NCI-H647
In short: as §1

NCI-H23 = system: NCI-H23
In short: as §1

RERF-LC-KJ = system: RERF-LC-KJ
In short: as §1

201T = system: 201T
In short: as §1

NCI-H2405 = system: NCI-H2405
In short: as §1

NCI-H520 = system: NCI-H520
In short: as §1

NCI-H1915 = system: NCI-H1915
In short: as §1

NCI-H1666 = system: NCI-H1666
In short: as §1

HCC-827 = system: HCC-827
In short: as §1

ChaGo-K-1 = system: ChaGo-K-1
In short: as §1

COc1cc(N2CCC(C(N)=O)CC2)ccc1Nc1nc(N)c(Cl)c(Nc2ccccc2S(=O)(=O)C(C)C)n1 [HG-5-88-01] + CS(=O)(=O)N1CCN(Cc2cc3nc(-c4cccc5[nH]ncc45)nc(N4CCOCC4)c3s2)CC1 [Pictilisib] (partner 1 µM)
relative viability (LC-2-ad; first compound 0.04 µM): 0.429
relative viability (LC-2-ad; first compound 0.1265 µM): 0.491
relative viability (LC-2-ad; first compound 0.4 µM): 0.366
relative viability (LC-2-ad; first compound 1.265 µM): 0.448
relative viability (LC-2-ad; first compound 4 µM): 0.334
relative viability (NCI-H650; first compound 0.04 µM): 0.88
relative viability (NCI-H650; first compound 0.1265 µM): 0.925
relative viability (NCI-H650; first compound 0.4 µM): 0.864
relative viability (NCI-H650; first compound 1.265 µM): 0.743
relative viability (NCI-H650; first compound 4 µM): 0.685
relative viability (NCI-H2347; first compound 0.04 µM): 0.603
relative viability (NCI-H2347; first compound 0.1265 µM): 0.645
relative viability (NCI-H2347; first compound 0.4 µM): 0.683
relative viability (NCI-H2347; first compound 4 µM): 0.471
relative viability (NCI-H2126; first compound 0.04 µM): 0.419
relative viability (NCI-H2126; first compound 0.1265 µM): 0.435
relative viability (NCI-H2126; first compound 0.4 µM): 0.513
relative viability (NCI-H2126; first compound 1.265 µM): 0.501
relative viability (NCI-H2126; first compound 4 µM): 0.38
relative viability (COR-L 105; first compound 0.04 µM): 0.348
relative viability (COR-L 105; first compound 0.1265 µM): 0.537
relative viability (COR-L 105; first compound 0.4 µM): 0.336
relative viability (COR-L 105; first compound 1.265 µM): 0.309
relative viability (COR-L 105; first compound 4 µM): 0.342
relative viability (H3255; first compound 0.04 µM): 0.479
relative viability (H3255; first compound 0.1265 µM): 0.484
relative viability (H3255; first compound 0.4 µM): 0.449
relative viability (H3255; first compound 4 µM): 0.317
relative viability (NCI-H661; first compound 0.04 µM): 0.43
relative viability (NCI-H661; first compound 0.1265 µM): 0.477
relative viability (NCI-H661; first compound 0.4 µM): 0.469
relative viability (NCI-H661; first compound 4 µM): 0.418
relative viability (HCC-78; first compound 0.04 µM): 0.204
relative viability (HCC-78; first compound 0.1265 µM): 0.19
relative viability (HCC-78; first compound 0.4 µM): 0.153
relative viability (HCC-78; first compound 1.265 µM): 0.167
relative viability (HCC-78; first compound 4 µM): 0.157
relative viability (NCI-H322M; first compound 0.04 µM): 0.461
relative viability (NCI-H322M; first compound 0.1265 µM): 0.471
relative viability (NCI-H322M; first compound 0.4 µM): 0.512
relative viability (NCI-H322M; first compound 1.265 µM): 0.441
relative viability (NCI-H322M; first compound 4 µM): 0.449
relative viability (PC-14; first compound 0.04 µM): 0.79
relative viability (PC-14; first compound 0.1265 µM): 0.862
relative viability (PC-14; first compound 0.4 µM): 0.658
relative viability (PC-14; first compound 1.265 µM): 0.168
relative viability (PC-14; first compound 4 µM): 0.108
relative viability (EPLC-272H; first compound 0.04 µM): 0.302
relative viability (EPLC-272H; first compound 0.1265 µM): 0.262
relative viability (EPLC-272H; first compound 0.4 µM): 0.29
relative viability (EPLC-272H; first compound 1.265 µM): 0.219
relative viability (EPLC-272H; first compound 4 µM): 0.0916
relative viability (LCLC-97TM1; first compound 0.04 µM): 0.156
relative viability (LCLC-97TM1; first compound 0.1265 µM): 0.185
relative viability (LCLC-97TM1; first compound 0.4 µM): 0.146
relative viability (LCLC-97TM1; first compound 1.265 µM): 0.213
relative viability (LCLC-97TM1; first compound 4 µM): 0.135
relative viability (NCI-H2087; first compound 0.04 µM): 0.835
relative viability (NCI-H2087; first compound 0.1265 µM): 1.08
relative viability (NCI-H2087; first compound 0.4 µM): 0.928
relative viability (NCI-H2087; first compound 1.265 µM): 0.771
relative viability (NCI-H2087; first compound 4 µM): 0.9
relative viability (NCI-H647; first compound 0.04 µM): 0.342
relative viability (NCI-H647; first compound 0.1265 µM): 0.407
relative viability (NCI-H647; first compound 0.4 µM): 0.453
relative viability (NCI-H647; first compound 1.265 µM): 0.371
relative viability (NCI-H647; first compound 4 µM): 0.443
relative viability (NCI-H23; first compound 0.04 µM): 0.382
relative viability (NCI-H23; first compound 0.1265 µM): 0.572
relative viability (NCI-H23; first compound 0.4 µM): 0.469
relative viability (NCI-H23; first compound 1.265 µM): 0.533
relative viability (NCI-H23; first compound 4 µM): 0.35
relative viability (RERF-LC-KJ; first compound 0.04 µM): 0.588
relative viability (RERF-LC-KJ; first compound 0.1265 µM): 0.714
relative viability (RERF-LC-KJ; first compound 0.4 µM): 0.498
relative viability (RERF-LC-KJ; first compound 1.265 µM): 0.481
relative viability (RERF-LC-KJ; first compound 4 µM): 0.412
relative viability (201T; first compound 0.04 µM): 0.71
relative viability (201T; first compound 0.1265 µM): 0.64
relative viability (201T; first compound 0.4 µM): 0.649
relative viability (201T; first compound 1.265 µM): 0.729
relative viability (201T; first compound 4 µM): 0.739
relative viability (NCI-H2405; first compound 0.04 µM): 0.286
relative viability (NCI-H2405; first compound 0.1265 µM): 0.465
relative viability (NCI-H2405; first compound 0.4 µM): 0.363
relative viability (NCI-H2405; first compound 1.265 µM): 0.329
relative viability (NCI-H2405; first compound 4 µM): 0.451
relative viability (NCI-H520; first compound 0.04 µM): 0.366
relative viability (NCI-H520; first compound 0.1265 µM): 0.273
relative viability (NCI-H520; first compound 0.4 µM): 0.235
relative viability (NCI-H520; first compound 1.265 µM): 0.299
relative viability (NCI-H520; first compound 4 µM): 0.36
relative viability (NCI-H1915; first compound 0.04 µM): 0.92
relative viability (NCI-H1915; first compound 0.1265 µM): 0.973
relative viability (NCI-H1915; first compound 0.4 µM): 0.95
relative viability (NCI-H1915; first compound 1.265 µM): 1.13
relative viability (NCI-H1915; first compound 4 µM): 0.806
relative viability (NCI-H1666; first compound 0.04 µM): 0.503
relative viability (NCI-H1666; first compound 0.1265 µM): 0.43
relative viability (NCI-H1666; first compound 0.4 µM): 0.467
relative viability (NCI-H1666; first compound 1.265 µM): 0.476
relative viability (NCI-H1666; first compound 4 µM): 0.34
relative viability (HCC-827; first compound 0.04 µM): 1.02
relative viability (HCC-827; first compound 0.1265 µM): 0.931
relative viability (HCC-827; first compound 0.4 µM): 0.924
relative viability (HCC-827; first compound 1.265 µM): 0.552
relative viability (HCC-827; first compound 4 µM): 0.56
relative viability (ChaGo-K-1; first compound 0.04 µM): 0.794
relative viability (ChaGo-K-1; first compound 0.1265 µM): 0.785
relative viability (ChaGo-K-1; first compound 0.4 µM): 0.679
relative viability (ChaGo-K-1; first compound 1.265 µM): 0.863
relative viability (ChaGo-K-1; first compound 4 µM): 0.556
